Experimental data: US7932262B2 (Novartis AG, priority 2006, dated 2011)
Read-outs that look alike come from different tables or passages of the source.

Key:
[1] = test system: pAkt308 (phosphorylation of Akt at T308) in PC-3 cells; test: pAkt T308 ECL Assay in PC-3 cells; format: cell-based; details: Homo sapiens, 6 h, six hours with compound, read-out: PAKT308 PC3 IC50
Method: VI. The pAkt^T308 ECL Assay Protocol
On Day 1, PC-3 cells were seeded at 15,000 cells/well in 100 μL/well ([…]) growth media into black-walled, clear bottom, poly-L-lysine coated plates. The cells were incubated overnight in a 37° C., 5% CO2 incubator.
On Day 2, a MSD ECL plate was blocked for two hours with 150 μL per well of 3% MSD blocker A.
Test compounds were diluted to 500× in DMSO and then were subjected to further serial dilution using a BioMek 2000 instrument. DMSO diluted compounds were then diluted into growth media and then added to the cell plates.
The cell plates incubated with compounds for six hours in a 37° C., 5% CO2 incubator after which the growth medium was removed and 55 μl of MSD lysis buffer was added to cell plates on ice. The plates were lysed on ice for five minutes followed by 15 minutes of vigorous shaking on a plate shaker at 4° C. The blocked MSD assay plates were washed twice with 1×MSD wash buffer followed by the addition of cell lysate as follows: 30 μl of cell lysate was added to the pAkt308 plates and 13 μl of lysate+12 μl lysis buffer was added to the tAkt plates. The plates were then sealed and shaken at 4° C. overnight.
On Day 3, the MSD plates were washed four times with 1×MSD wash buffer then, 25 μl/well of MSD SULFO-TAG antibodies diluted to 10 nM final concentration in 1% blocker. A buffer was added to the antibody diluent which was added to assay plates. The plates were then sealed and incubated at RT for 1.5 hour. The plates were then washed twice with 1×MSD wash buffer followed by the addition of 150 μl/well of 1.5×MSD read buffer. The plates were read immediately after the addition of read buffer using a Trilux instrument. […]

PDK1 kinase = biological target: T1, PDK1 kinase (Homo sapiens, UniProt O15530); test: PDK1 Kinase Alpha Screen Assay; format: biochemical; details: read-out: PDK1 IC50
T1 sequence (O15530 1-556): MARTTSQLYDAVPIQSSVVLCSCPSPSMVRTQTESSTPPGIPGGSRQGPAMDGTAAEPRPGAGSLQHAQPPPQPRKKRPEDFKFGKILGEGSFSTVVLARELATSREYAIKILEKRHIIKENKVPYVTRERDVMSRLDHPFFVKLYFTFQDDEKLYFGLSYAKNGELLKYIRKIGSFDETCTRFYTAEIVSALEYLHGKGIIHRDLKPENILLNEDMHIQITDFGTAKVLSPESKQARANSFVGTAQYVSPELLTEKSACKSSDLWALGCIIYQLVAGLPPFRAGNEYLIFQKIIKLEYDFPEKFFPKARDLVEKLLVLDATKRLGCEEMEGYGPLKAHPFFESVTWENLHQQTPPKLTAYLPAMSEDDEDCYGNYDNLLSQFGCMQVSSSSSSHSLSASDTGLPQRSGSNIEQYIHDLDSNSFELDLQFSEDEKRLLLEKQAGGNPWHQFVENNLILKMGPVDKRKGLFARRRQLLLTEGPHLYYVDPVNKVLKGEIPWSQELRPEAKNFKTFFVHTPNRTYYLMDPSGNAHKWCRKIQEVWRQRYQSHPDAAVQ
Procedure, shortened: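 Kinase inhibition measured as loss of AlphaScreen signal from antibody recognition of phosphorylated biotin-PDK1-4 peptide. Reactions contain 10 uM ATP and 50 nM peptide, run 3-18 hours before EDTA quench and overnight bead development at room temperature.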

PC-3 cells = test: Cell Proliferation Assay (Cell Titer Glo), PC-3 cell line; format: cell-based; details: Homo sapiens
Procedure, shortened: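 Cell Titer Glo luminescence, read after fresh medium replaced the dosing medium, gave viability of PC-3 cells plated at 1000 cells/well. Compounds, 1:3 serially diluted in DMSO at 500× and then in medium, were added after 3-5 h adhesion and incubated 3 days at 37° C.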

PC3MM cells = test: Cell Proliferation Assay (Cell Titer Glo), PC3MM; format: cell-based; details: cell proliferation, PC3MM cells; read-out: CPEC50 PC3MM
Procedure, shortened: (§1)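 Following a 3-day compound exposure (37° C., 5% CO2) of A2780 or PC3MM cells plated at 1000 per well, viability was measured by Cell Titer Glo luminescence in fresh medium, read 10 min after reagent addition.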

A2780 cells = test: Cell Proliferation Assay (Cell Titer Glo), A2780; format: cell-based; details: Homo sapiens; cell proliferation, A2780 cells; read-out: CPEC50 A2780
Procedure, shortened: as §1

[2] = PC-3, 72 h, PC-3 cells, 3 days incubation, read-out: CP EC50 PC3
[3] = PC-3, cell proliferation, PC3 cells, read-out: CPEC50 PC3

IC50 [1]	IC50 (PDK1 kinase)	EC50 (PC-3 cells; [2])	IC50 (PDK1 kinase; PDK1 Kinase Alpha Screen Assay)	EC50 (PC-3 cells; [3])	EC50 (PC3MM cells)	EC50 (A2780 cells)	Structure (SMILES)
< 5 µM	< 5 µM	< 5 µM	–	–	–	–	COc1cc(Nc2ncc3ccc(OC4CCNCC4)cc3n2)cc(OC)c1 [Compound 55, (3,5-Dimethoxy-phenyl)-[7-(piperidin-4-yloxy)-quinazolin-2-yl]-amine]
< 5 µM	< 5 µM	< 5 µM	–	–	–	–	CC(C)NS(=O)(=O)c1ccc(Nc2ncc3ccc(OC4CCN(C(C)C)CC4)cc3n2)cc1 [Compound 58, N-Isopropyl-4-[7-(1-isopropyl-piperidin-4-yloxy)-quinazolin-2-ylamino]-benzenesulfonamide]
< 5 µM	< 5 µM	< 5 µM	–	–	–	–	Fc1ccc(Nc2ncc3ccc(OC4CCNCC4)cc3n2)cc1 [Compound 59, (4-Fluoro-phenyl)-[7-(piperidin-4-yloxy)-quinazolin-2-yl]-amine]
< 5 µM	< 5 µM	< 5 µM	–	–	–	–	CNS(=O)(=O)Cc1ccc(Nc2ncc3ccc(OC4CCN(C(C)C)CC4)cc3n2)cc1 [Compound 61, C-{4-[7-(1-Isopropyl-piperidin-4-yloxy)-quinazolin-2-ylamino]-phenyl}-N-methyl-methanesulfonamide]
< 5 µM	< 5 µM	< 5 µM	–	–	–	–	CC(=O)Nc1ccc(Nc2ncc3ccc(OC4CCNCC4)cc3n2)cc1C [Compound 63, N-{2-Methyl-4-[7-(piperidin-4-yloxy)-quinazolin-2-ylamino]-phenyl}-acetamide]
5 to 10 µM	< 5 µM	< 5 µM	–	–	–	–	Nc1ncc(-c2ccc3cnc(Nc4ccc(S(N)(=O)=O)cc4)nc3c2OC2CCNCC2)cc1C(F)(F)F [Compound 68, 4-[7-(6-Amino-5-trifluoromethyl-pyridin-3-yl)-8-(piperidin-4-yloxy)-quinazolin-2-ylamino]-benzenesulfonamide]
10 to 25 µM	< 5 µM	< 5 µM	–	–	–	–	CNC(=O)Cc1ccc(Nc2ncc3cccc(OC4CCN(C(C)C)CC4)c3n2)cc1 [Compound 70, 2-{4-[8-(1-Isopropyl-piperidin-4-yloxy)-quinazolin-2-ylamino]-phenyl}-N-methyl-acetamide]
5 to 10 µM	< 5 µM	< 5 µM	–	–	–	–	CC(C)NC(=O)Cc1ccc(Nc2ncc3cccc(OC4CCN(C(C)C)CC4)c3n2)cc1 [Compound 71, N-Isopropyl-2-{4-[8-(1-isopropyl-piperidin-4-yloxy)-quinazolin-2-ylamino]-phenyl}-acetamide]
< 5 µM	< 5 µM	< 5 µM	–	–	–	–	CC(C)N1CCC(Oc2cccc3cnc(Nc4ccc(N5CCOCC5)cc4)nc23)CC1 [Compound 72, [8-(1-Isopropyl-piperidin-4-yloxy)-quinazolin-2-yl]-(4-morpholin-4-yl-phenyl)-amine]
5 to 10 µM	< 5 µM	< 5 µM	–	–	–	–	CC(=O)Nc1ccc(Nc2ncc3cccc(OC4CCN(C(C)C)CC4)c3n2)cc1 [Compound 73, N-{4-[8-(1-Isopropyl-piperidin-4-yloxy)-quinazolin-2-ylamino]-phenyl}-acetamide]
< 5 µM	< 5 µM	< 5 µM	–	–	–	–	CNC(=O)Cc1cccc(Nc2ncc3cccc(OC4CCN(C(C)C)CC4)c3n2)c1 [Compound 77, 2-{3-[8-(1-Isopropyl-piperidin-4-yloxy)-quinazolin-2-ylamino]-phenyl}-N-methyl-acetamide]
< 5 µM	< 5 µM	< 5 µM	–	–	–	–	CC(=O)Nc1cccc(Nc2ncc3cccc(OC4CCN(C(C)C)CC4)c3n2)c1 [Compound 81]
–	–	–	< 5 µM	< 5 µM	< 5 µM	< 5 µM	CC(C)NC(=O)c1ccc(Nc2ncc3cccc(OC4CCN(C(C)C)CC4)c3n2)cc1 [Compound 797, N-isopropyl-4-(8-(1-isopropylpiperidin-4-yloxy)quinazolin-2-ylamino)benzamide]
–	–	–	< 5 µM	< 5 µM	< 5 µM	< 5 µM	Cn1cc(-c2ccc3cnc(Nc4ccc(S(N)(=O)=O)cc4)nc3c2)cn1 [Compound 799, 4-(7-(1-methyl-1H-pyrazol-4-yl)quinazolin-2-ylamino)benzenesulfonamide]
–	–	–	< 5 µM	< 5 µM	< 5 µM	< 5 µM	NS(=O)(=O)c1ccc(Nc2ncc3ccc(-c4cccnc4F)cc3n2)cc1 [Compound 800, 4-(7-(2-fluoropyridin-3-yl)quinazolin-2-ylamino)benzenesulfonamide]
–	–	–	< 5 µM	< 5 µM	< 5 µM	< 5 µM	O=S(=O)(NCCN1CCCC1)c1ccc(Nc2ncc3cccc(OC4CCNCC4)c3n2)cc1 [Compound 810, 4-(8-(piperidin-4-yloxy)quinazolin-2-ylamino)-N-(2-(pyrrolidin-1-yl)ethyl)benzenesulfonamide]
–	–	–	< 5 µM	< 5 µM	< 5 µM	< 5 µM	CC(C)CN1CCC(Oc2cccc3cnc(Nc4ccc(S(N)(=O)=O)cc4)nc23)CC1 [Compound 816, 4-(8-(1-isobutylpiperidin-4-yloxy)quinazolin-2-ylamino)benzenesulfonamide]
–	–	–	< 5 µM	< 5 µM	< 5 µM	< 5 µM	COCCNc1ccc(-c2cccc3cnc(Nc4ccc(S(N)(=O)=O)cc4)nc23)cn1 [Compound 825, 4-(8-(6-(2-methoxyethylamlno)pyridin-3-yl)quinazoln-2-ylamino)benzenesulfonamide]
–	–	–	< 5 µM	< 5 µM	< 5 µM	< 5 µM	CN1CCN(c2ccc(-c3cccc4cnc(Nc5ccc(S(N)(=O)=O)cc5)nc34)cn2)CC1 [Compound 827, 4-(8-(6-(4-methylpiperazin-1-yl)pyridin-3-yl)quinazolin-2-ylamino)benzenesulfonamide]
–	–	–	< 5 µM	< 5 µM	< 5 µM	< 5 µM	NS(=O)(=O)c1ccc(Nc2ncc3cccc(-c4ccc(NCCN5CCCC5)nc4)c3n2)cc1 [Compound 830, 4-(8-(6-(2-(pyrrolidin-1-yl)ethylamino)pyridin-3-yl)-quinazolin-2-ylamino)benzenesulfonamide]
–	–	–	< 5 µM	< 5 µM	< 5 µM	< 5 µM	CN1CCC(Nc2ccc3cnc(Nc4ccc(S(N)(=O)=O)cc4)nc3c2)CC1 [Compound 843, 4-(7-(1-methylpiperidin-4-ylamino)quinazolin-2-ylamino)benzenesulfonamide]
–	–	–	< 5 µM	< 5 µM	< 5 µM	< 5 µM	NS(=O)(=O)c1ccc(Nc2ncc3cc(Br)cc(OC4CCNCC4)c3n2)cc1 [Compound 846, 4-(6-bromo-8-(piperidin-4-yloxy)quinazolin-2-ylamino)benzenesulfonamide]

Structure (SMILES)	IC50 [1]	IC50 (PDK1 kinase)	EC50 (PC-3 cells; [2])	IC50 (PDK1 kinase; PDK1 Kinase Alpha Screen Assay)	EC50 (PC-3 cells; [3])	EC50 (PC3MM cells)	EC50 (A2780 cells)
NS(=O)(=O)c1ccc(Nc2ncc3cc(Br)cc(OC4CN5CCC4CC5)c3n2)cc1 (centres unmarked) [Compound 847, 4-(6-bromo-8-(quinuclidin-3-yloxy)quinazolin-2-ylamino)benzenesulfonamide]	–	–	–	< 5 µM	< 5 µM	< 5 µM	< 5 µM
